# According to ChEMBL document CHEMBL1158775, “Quinones from Chirita eburnea” (J Nat Prod, 2005):
# Tested on: Radical scavenging activity
# Test: Antioxidant activity assessed as DPPH radical scavenging activity
# Format: functional
row,IC50,SMILES
1,86.9 µM,O=C1O[C@H]([C@@H](O)CO)C(O)=C1O [ASCORBIC ACID]
2,125 µM,C[C@@H]1OC2=C(C(=O)c3ccc(O)c(O)c3C2=O)C1(C)C
3,45.7 µM,COc1c(O)cc2c(c1O)C(=O)C1=C(C2=O)C(C)(C)[C@H](C)O1
